For assay [1], the system named is σ^E-dependent rpoE P1::lacZ reporter (σ^E activity). Put plainly: Differential rate of β-galactosidase synthesis from the σ^E-dependent rpoE P1::lacZ reporter fusion. It is filed as cell-based, Rhodobacter sphaeroides. Particulars: for Rate (differential rate of β-galactosidase synthesis from the σ^E-dependent rpoE::lacZ fusion): WT cells, Aero (30% O2). As to the method: Bacterial strains and plasmids: R. sphaeroides 2.4.1 (wild-type, WT), R. sphaeroides with a mutant ChrR (ΔChrR) (chrR-1::drf; see Newman et al., supra.) or R. sphaeroides with both a mutant σ^E (Δσ^E) and ΔChrR (TF18; rpoEchrR-1::drf, see Schilke B & Donohue T, “ChrR positively regulates transcription of the Rhodobacter sphaeroides cytochrome c2 gene,” J. Bacteriol. 177:1929-1937 (1995), incorporated herein by reference as if set forth in its entirety) were grown at 30° C. in Sistrom's succinate-based minimal medium A. Media used for growth of strains containing low-copy lacZ reporter plasmids was supplemented with 25 μg/ml kanamycin.
Growth conditions: For aerobic respiratory growth, 500 ml of media was bubbled with a mixture of 69% N2, 30% O2 and 1% CO2 in the dark. Conversely, for photosynthetic growth, 500 ml of media was bubbled with a mixture of 95% N2 and 5% CO2 in front of an incandescent light source (10 W/m^2 as measured with a Yellow-Springs-Kettering model 6.5A radiometer through a Corning […] filter).
(§1) To test the effects of ^1O2, photosynthetic cultures were exposed to aerobic growth conditions (69% N2, 30% O2 and 1% CO2) in the presence or in the absence of light (10 W/m^2). Where indicated, light was passed through a 1283 filter (Kopp Glass; Pittsburgh, Pa.) that impedes >99% of light at wavelengths <770 nm, but transmits >45% of light at 830 nm and >80% of light at 900 nm. When using methylene blue (Sigma-Aldrich; St. Louis, Mo.) to generate ^1O2, a final concentration of 1 μM was added to aerobic cultures in the presence or in the absence of incandescent light (10 W/m^2). To test the effects of other ROS, 0.5 mM H2O2, 1 mM diamide or 1 mM paraquat (Sigma-Aldrich) was added to aerobic cultures.
Determining promoter activity: Promoter activity was determined by measuring β-galactosidase activity from a low copy rpoE P1::lacZ reporter plasmid or a trxA::lacZ reporter plasmid. The promoter for the thioredoxin gene (trxA, −214 to +27 relative to the known transcription initiation site) was fused to lacZ and mobilized into R. sphaeroides.
β-galactosidase activity (units/ml of culture) was calculated as follows: (A420×1000)/(Cell volume in assay (ml)×Time of assay (min)). Culture density was typically monitored by measuring A600 in a BioSpec 1601 spectrophotometer (Schimatzu; Columbia, Md.). The density of cultures treated with methylene blue was monitored at 500 nm because methylene blue absorbs light between 609-668 nm. The differential rate of β-galactosidase synthesis was determined by calculating the slope from plots of enzyme activity (units/ml of culture) against optical density. All experiments were repeated a minimum of three times with differential rates of β-galactosidase synthesis typically deviating less than two-fold between experiments.

Assay [2] shares this test system. The settings on record: cited from earlier work.
Assay [3] has as its system trxA::lacZ reporter (trx promoter). Format: cell-based, Rhodobacter sphaeroides.
Method: To test the effects of ^1O2, photosynthetic cultures were exposed to aerobic growth conditions (69% N2, 30% O2 and 1% CO2) in the presence or in the absence of light (10 W/m^2). Where indicated, light was passed through a 1283 filter (Kopp Glass; Pittsburgh, Pa.) that impedes >99% of light at wavelengths <770 nm, but transmits >45% of light at 830 nm and >80% of light at 900 nm. When using methylene blue (Sigma-Aldrich; St. Louis, Mo.) to generate ^1O2, a final concentration of 1 μM was added to aerobic cultures in the presence or in the absence of incandescent light (10 W/m^2). […]
Determining promoter activity: Promoter activity was determined by measuring β-galactosidase activity from a low copy rpoE P1::lacZ reporter plasmid or a trxA::lacZ reporter plasmid. […]
β-galactosidase activity (units/ml of culture) was calculated as follows: (A420×1000)/(Cell volume in assay (ml)×Time of assay (min)). Culture density was typically monitored by measuring A600 in a BioSpec 1601 spectrophotometer (Schimatzu; Columbia, Md.). The density of cultures treated with methylene blue was monitored at 500 nm because methylene blue absorbs light between 609-668 nm. The differential rate of β-galactosidase synthesis was determined by calculating the slope from plots of enzyme activity (units/ml of culture) against optical density. […]
For assay [4], the system named is R. sphaeroides Δσ^E mutant. Put plainly: Growth and viability of aerobically grown cells treated with methylene blue in the presence of light. It is filed as cell-based, Rhodobacter sphaeroides. The settings on record: methylene blue + light (1O2), FIG. 3. As to the method: as §1
All experiments were initiated when cultures reached ˜2×10^8 cfu/ml to minimize light or O2 limitation to photosynthetic and aerobic cells, respectively. To measure cell viability, samples were removed, diluted and plated in media supplemented with 25 μg/ml kanamycin to select for the rpoE P1::lacZ reporter plasmid. The whole cell abundance of carotenoids was measured as described in Cohen-Bazire G, et al., “Kinetic studies of pigment synthesis by non-sulfur purple bacteria,” J. Cell Physiol. 49:25-68 (1957). […]

Setting [5] is: WT cells grown aerobically, 0.5 mM H2O2, 1 mM diamide or 1 mM paraquat, untreated = 11.

Like-named read-outs stand apart in the source and are kept apart here.

On to `CN(C)C(=O)/N=N/C(=O)N(C)C` [Diamide, diamide], for which the “rpoE P1::lacZ fusion (differential rate of β-galactosidase synthesis)” value in assay [1] (setting [5]) is 3. In addition, in assay [2], the “σ^E activity upon exposure to the compound (previous work)” value is “does not increase”.

As for `OO` [H2O2, hydrogen peroxide], in assay [1], the “Change of differential rate of β-galactosidase synthesis from the σ^E-dependent reporter fusion compared to untreated cells” value is reported as “no more than 1.2 fold” and the “rpoE P1::lacZ fusion (differential rate of β-galactosidase synthesis)” value is given as 13. In addition, in assay [3], the “trxA::lacZ fusion (differential rate of β-galactosidase synthesis)” value was found to be 220.

With `C[n+]1ccc(-c2cc[n+](C)cc2)cc1` [Paraquat, paraquat], in assay [1] (setting [5]), the “rpoE P1::lacZ fusion (differential rate of β-galactosidase synthesis)” value was 6. For the same compound, the “Change of differential rate of β-galactosidase synthesis from the σ^E-dependent reporter fusion compared to untreated cells” value in assay [1] (aerobic WT cells, 0.5 mM H2O2 or 1 mM paraquat) was “decreased”. The “trxA::lacZ fusion (differential rate of β-galactosidase synthesis)” value in assay [3] (WT cells grown aerobically, 0.5 mM H2O2 or 1 mM paraquat, untreated = 185) was 450.

On to `CN(C)c1ccc2nc3ccc(=[N+](C)C)cc-3sc2c1` [methylene blue], for which the “Effect on Δσ^E mutant when carotenoids are low (OD500nm, cfu/ml)” value in assay [4] is “bacteriocidal”. The “Increase of differential rate of β-galactosidase synthesis from rpoE P1::lacZ compared to aerobic cells grown without methylene blue” value in assay [1] (WT aerobic cells, 1 μM methylene blue, light and O2) is ~20 fold. The “Increase of rate of β-galactosidase synthesis from rpoE P1::lacZ” value in assay [1] (WT aerobic cultures, methylene blue in the dark) is reported as “two-fold”. For the same compound, the “Rate (differential rate of β-galactosidase synthesis from the σ^E-dependent rpoE::lacZ fusion)” value in assay [1] (1 μM methylene blue + light (generates 1O2)) was 151; in assay [1] (1 μM methylene blue, dark (no 1O2)), 8.
